Reference: ChEMBL document CHEMBL5226326, “Discovery of 1-Benzoyl 4-Phenoxypiperidines as Small-Molecule Inhibitors of the β-Catenin/B-Cell Lymphoma 9 Protein-Protein Interaction” (J Med Chem, 2021)

Key:
[1] = molecular target: T1, beta-catenin-B-cell lymphoma 9 protein complex (Homo sapiens, UniProt P35222); experiment: Inhibition of full length beta-catenin (1 to 781 residues) (unknown origin) expressed in Escherichia coli BL21 (DE3)/N-terminal biotinylated human BCL9 HD2 (350 to 375 residues) protein-protein interaction incubated for 1 hr by Alphascreen assay
T1 sequence (P35222 whole entry): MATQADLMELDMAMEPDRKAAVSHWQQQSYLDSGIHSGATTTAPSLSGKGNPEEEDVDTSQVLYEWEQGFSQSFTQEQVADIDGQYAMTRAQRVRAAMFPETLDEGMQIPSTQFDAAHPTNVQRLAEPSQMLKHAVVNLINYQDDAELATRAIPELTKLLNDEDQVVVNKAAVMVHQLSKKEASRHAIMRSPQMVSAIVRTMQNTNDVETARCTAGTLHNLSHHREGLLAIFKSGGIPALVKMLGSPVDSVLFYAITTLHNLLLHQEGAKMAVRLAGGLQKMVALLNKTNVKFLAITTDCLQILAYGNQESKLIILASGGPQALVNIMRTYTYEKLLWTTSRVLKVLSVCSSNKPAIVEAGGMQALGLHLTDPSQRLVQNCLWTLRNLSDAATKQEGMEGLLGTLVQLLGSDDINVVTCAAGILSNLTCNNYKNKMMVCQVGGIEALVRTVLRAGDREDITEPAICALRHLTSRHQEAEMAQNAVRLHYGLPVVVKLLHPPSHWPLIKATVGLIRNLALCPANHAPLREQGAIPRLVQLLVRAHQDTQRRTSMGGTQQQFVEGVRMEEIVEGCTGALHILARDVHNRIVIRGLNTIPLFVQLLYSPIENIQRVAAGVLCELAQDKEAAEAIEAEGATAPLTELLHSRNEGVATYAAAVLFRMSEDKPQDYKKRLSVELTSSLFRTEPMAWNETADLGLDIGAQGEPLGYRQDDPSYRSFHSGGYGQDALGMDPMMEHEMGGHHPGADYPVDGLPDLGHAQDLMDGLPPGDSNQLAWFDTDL
T1 sequence (O00512 whole entry): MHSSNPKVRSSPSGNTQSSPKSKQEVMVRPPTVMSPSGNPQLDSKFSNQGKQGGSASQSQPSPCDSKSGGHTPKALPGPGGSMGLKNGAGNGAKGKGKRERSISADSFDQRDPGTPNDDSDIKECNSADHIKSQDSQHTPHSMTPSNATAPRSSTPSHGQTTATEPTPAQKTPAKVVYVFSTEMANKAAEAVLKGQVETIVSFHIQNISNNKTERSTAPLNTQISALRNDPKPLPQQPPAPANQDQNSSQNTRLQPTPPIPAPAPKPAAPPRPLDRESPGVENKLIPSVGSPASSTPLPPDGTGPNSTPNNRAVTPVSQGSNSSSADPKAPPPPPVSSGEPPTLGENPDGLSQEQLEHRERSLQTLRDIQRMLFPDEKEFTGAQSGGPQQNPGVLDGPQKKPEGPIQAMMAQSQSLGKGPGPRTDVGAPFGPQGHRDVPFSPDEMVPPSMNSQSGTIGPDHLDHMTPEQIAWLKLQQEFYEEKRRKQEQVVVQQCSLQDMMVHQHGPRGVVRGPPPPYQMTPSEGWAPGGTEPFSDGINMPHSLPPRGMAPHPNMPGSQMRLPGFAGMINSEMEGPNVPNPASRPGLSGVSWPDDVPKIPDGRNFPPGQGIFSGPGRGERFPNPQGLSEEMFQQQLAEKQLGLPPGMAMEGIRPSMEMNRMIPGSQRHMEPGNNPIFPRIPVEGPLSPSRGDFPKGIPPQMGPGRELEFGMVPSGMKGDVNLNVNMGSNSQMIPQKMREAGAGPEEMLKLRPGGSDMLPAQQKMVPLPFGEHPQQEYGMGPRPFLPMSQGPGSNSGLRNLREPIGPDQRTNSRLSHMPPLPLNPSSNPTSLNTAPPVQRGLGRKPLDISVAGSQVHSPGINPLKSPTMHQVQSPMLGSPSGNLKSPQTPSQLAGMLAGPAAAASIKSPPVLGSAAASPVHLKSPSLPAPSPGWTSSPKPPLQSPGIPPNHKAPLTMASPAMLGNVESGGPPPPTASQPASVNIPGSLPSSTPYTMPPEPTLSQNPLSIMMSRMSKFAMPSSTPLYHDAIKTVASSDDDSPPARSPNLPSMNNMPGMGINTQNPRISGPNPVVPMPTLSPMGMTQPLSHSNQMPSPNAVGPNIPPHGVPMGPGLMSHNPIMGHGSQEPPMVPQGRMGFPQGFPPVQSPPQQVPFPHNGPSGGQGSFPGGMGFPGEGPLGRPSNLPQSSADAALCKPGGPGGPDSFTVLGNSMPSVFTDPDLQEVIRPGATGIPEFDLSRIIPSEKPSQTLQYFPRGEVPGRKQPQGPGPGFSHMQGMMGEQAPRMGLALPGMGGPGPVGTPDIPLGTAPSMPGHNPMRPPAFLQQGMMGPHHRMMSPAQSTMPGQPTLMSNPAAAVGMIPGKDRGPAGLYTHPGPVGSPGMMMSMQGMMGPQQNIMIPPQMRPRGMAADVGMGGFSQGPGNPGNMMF

[2] = molecular target: T1, beta-catenin-B-cell lymphoma 9 protein complex; experiment: Inhibition of full length beta-catenin (1 to 781 residues) (unknown origin) expressed in Escherichia coli BL21 (DE3)/N-terminal biotinylated human BCL9 HD2 (350 to 375 residues) protein-protein interaction assessed as inhibition constant incubated for 1 hr by Alphascreen assay

| Compound | IC50 [1] [µM] | Ki [2] [µM] |
| --- | --- | --- |
| O=C(c1ccc(O[C@H]2CCNC2)c(C2CCCCC2)c1)N1CCC(Oc2cc(F)cc(N3CCNCC3=O)c2)CC1 | > 100 | > 84 |
| CC(O)C(=O)N1CCC(c2cc(C(=O)N3CCC(Oc4cc(F)cc(N5CCNCC5)c4)CC3)ccc2O[C@H]2CCNC2)CC1 (stereo partly drawn) | 37 | 34 |
| O=C(c1cc(F)cc(N2CCNCC2)c1)N1CCN(C(=O)c2ccc(O[C@@H]3CCNC3)c(C3CCCCC3)c2)CC1 | ≥ 60 | 50 |
| CC(C)C(=O)N1CCC(c2cc(C(=O)N3CCC(Oc4cc(F)cc(N5CCNCC5)c4)CC3)ccc2O[C@H]2CCNC2)CC1 | 35 | 31 |
| NCCCC(=O)Nc1cc(F)cc(OC2CCN(C(=O)c3ccc(O[C@H]4CCNC4)c(C4CCCCC4)c3)CC2)c1 | 73 | 66 |
| CC(C)(C)C1CCC(c2cc(C(=O)N3CCC(Oc4cc(N5CCNCC5)cc(C(F)(F)F)c4)CC3)ccc2O[C@H]2CCNC2)CC1 (stereo partly drawn) | 4.3 | 3.6 |
| CN(C)Cc1cn(Cc2cc(F)cc(OC3CCN(C(=O)c4ccc(O[C@H]5CCNC5)c(C5CCCCC5)c4)CC3)c2)nn1 | 80 | 72 |
| O=C(c1ccc(O[C@H]2CCNC2)c(C2CCCCC2)c1)N1CCC(Oc2cc(F)cc(N3C[C@H]4CNC[C@H]4C3)c2)CC1 | > 100 | > 84 |
| NCCC(=O)Nc1cc(F)cc(OC2CCN(C(=O)c3ccc(O[C@H]4CCNC4)c(C4CCCCC4)c3)CC2)c1 | 69 | 62 |
| O=C(c1ccc(O[C@H]2CCNC2)c(C2CCCCC2)c1)N1CCC(Oc2cc(F)cc(N3CCC4(CC3)CNC4)c2)CC1 | > 100 | > 84 |
| O=C(c1ccc(OC2CCNCC2)c(C2CCCCC2)c1)N1CCC(Oc2cc(F)cc(N3CCNCC3)c2)CC1 | > 100 | > 84 |
| CC(C)(C)C1CCC(c2cc(C(=O)N3CCC(Oc4cc(N5CCNCC5)ccc4C(=O)O)CC3)ccc2O[C@H]2CCNC2)CC1 (stereo partly drawn) | > 100 | > 84 |
| O=C(c1ccc(O[C@H]2CCNC2)c(C2CCCCC2)c1)N1CCC(Oc2cc(F)cc(N3CC4(CCNCC4)C3)c2)CC1 | > 100 | > 84 |
| O=C(c1ccc(O[C@H]2CCNC2)c(C2CCN(C(=O)C3CC3)CC2)c1)N1CCC(Oc2cc(F)cc(N3CCNCC3)c2)CC1 | 39 | 35 |
| NCCC(=O)NCc1cc(F)cc(OC2CCN(C(=O)c3ccc(O[C@H]4CCNC4)c(C4CCCCC4)c3)CC2)c1 | > 100 | > 84 |
| O=C(c1ccc(O[C@H]2CCNC2)c(-c2ccc3[nH]ncc3c2)c1)N1CCC(Oc2cc(F)cc(N3CCNCC3)c2)CC1 | 8.8 | 7.9 |
| O=C(c1ccc(O[C@H]2CCNC2)c(-c2ccc3nc[nH]c3c2)c1)N1CCC(Oc2cc(F)cc(N3CCNCC3)c2)CC1 | 48 | 43 |

| Compound | IC50 [1] [µM] | Ki [2] [µM] |
| --- | --- | --- |
| O=C(c1ccc(O[C@@H]2CCNC2)c(C2CCCCC2)c1)N1CCC(Oc2cc(F)cc(N3CCNCC3)c2)CC1 | 64 | 52 |
| O=C(c1ccc(O[C@H]2CCNC2)c(C2CCCCC2)c1)N1CCC(Oc2cc(F)cc(N3CCNCC3)c2)CC1 | 57 | 46 |
| O=C(c1ccc(O[C@H]2CCNC2)c(-c2ccc(C(F)(F)F)cc2)c1)N1CCC(Oc2cc(F)cc(N3CCNCC3)c2)CC1 | 18 | 16 |
| O=C(c1ccc(O[C@H]2CCNC2)c(-c2ccc3ccsc3c2)c1)N1CCC(Oc2cc(F)cc(N3CCNCC3)c2)CC1 | 4.5 | 4 |
| NCc1cn(Cc2cc(F)cc(OC3CCN(C(=O)c4ccc(O[C@H]5CCNC5)c(C5CCCCC5)c4)CC3)c2)nn1 | > 100 | > 84 |
| CC(C)(C)C(=O)N1CCC(c2cc(C(=O)N3CCC(Oc4cc(F)cc(N5CCNCC5)c4)CC3)ccc2O[C@H]2CCNC2)CC1 | > 100 | > 84 |
| O=C(c1ccc(O[C@H]2CCNC2)c(-c2ccc3cn[nH]c3c2)c1)N1CCC(Oc2cc(F)cc(N3CCNCC3)c2)CC1 | 11 | 10 |
| CC(C)(C)c1ccc(-c2cc(C(=O)N3CCC(Oc4cc(F)cc(N5CCNCC5)c4)CC3)ccc2O[C@H]2CCNC2)cc1 | 11 | 10 |
| O=C(c1ccc(O[C@H]2CCNC2)c(-c2ccccc2)c1)N1CCC(Oc2cc(F)cc(N3CCNCC3)c2)CC1 | 47 | 42 |
| CC(C)(CN)C(=O)NCc1cc(F)cc(OC2CCN(C(=O)c3ccc(O[C@H]4CCNC4)c(C4CCCCC4)c3)CC2)c1 | > 100 | > 84 |
| O=C(c1ccc(O[C@H]2CCNC2)c(C2CCOCC2)c1)N1CCC(Oc2cc(F)cc(N3CCNCC3)c2)CC1 | > 100 | > 84 |
| O=C(c1ccc(O[C@H]2CCNC2)c(-c2ccc3ccccc3c2)c1)N1CCC(Oc2cc(F)cc(N3CCNCC3)c2)CC1 | 4.6 | 4.1 |
| CC(C)(C)C1CCC(c2cc(C(=O)N3CCC(Oc4cc(Cl)cc(N5CCNCC5)c4)CC3)ccc2O[C@H]2CCNC2)CC1 (mixture of isomers) | 4.3 | 3.6 |
| CC(C)(C)C1CCC(c2cc(C(=O)N3CCC(Oc4cc(C#N)cc(N5CCNCC5)c4)CC3)ccc2O[C@H]2CCNC2)CC1 (mixture of isomers) | 5.2 | 4.4 |
| O=C(c1ccc(O[C@H]2CCNC2)c(C2CCC(C(F)(F)F)CC2)c1)N1CCC(Oc2cc(F)cc(N3CCNCC3)c2)CC1 (mixture of isomers) | 20 | 13 |
| CC(C)(C)C1CCC(c2cc(C(=O)N3CCC(Oc4cc(N5CCNCC5)ccc4F)CC3)ccc2O[C@H]2CCNC2)CC1 (mixture of isomers) | 6.2 | 5 |
| CC(C)(C)C1CCC(c2cc(C(=O)N3CCC(Oc4cc(F)cc(N5CCNCC5)c4)CC3)ccc2O[C@H]2CCNC2)CC1 (mixture of isomers) | 3.6 | 3.2 |
